Patent publication US20250120967A1, “TYROSINE KINASES INHIBITORS AND USES THEREOF” (GREAT NOVEL THERAPEUTICS BIOTECH & MEDICALS CORPORATION, priority 2023, published 2025)

Legend:
Test in all cases: Tyrosine kinase inhibition assay
Format in all cases: biochemical
Settings in all cases: single concentration 1.0 μM, read-out: percent inhibition
[1] = target: FLT1 (VEGFR1) (Homo sapiens, UniProt P17948)
Protocol: (§1) Tyrosine kinase inhibition assays were performed at ThermoFisher Life Technologies (Madison, WI, USA) using standard protocols (SelectScreen Biochemical Profiling Service, Thermo Fisher Scientific). ATP concentrations used were at the apparent Km. Test compounds were screened in 1% dimethylsulffoxide (DMSO) (final concentration) in the well. For 10-point titrations, 3-fold serial dilutions were conducted from the starting concentration of […]. All Peptide/Kinase Mixtures were diluted to a 2× working concentration in the appropriate Kinase Buffer. All ATP Solutions were diluted to a 4× working concentration in Kinase Buffer (50 mM HEPES pH 7.5, 0.01% BRIJ-35, 10 mM MgCl2, 1 mM EGTA). The apparent ATP Km was previously determined using a Z′-LYTE assay. The Development Reagent was diluted in Development Buffer.
(§2) The inhibition activities of compounds were determined in biochemical assays using single concentration (1.0 μM) measurements. The results were provided as percent inhibition values. […] 99 different tyrosine kinases were used.

[2] = target: EGFR (ErbB1) (Homo sapiens, UniProt P00533)
Protocol: as §1, §2

[3] = target: PTK2 (FAK) (Homo sapiens, UniProt Q05397)
Protocol: as §1, §2

[4] = target: LTK (TYK1) (Homo sapiens, UniProt P29376)
Summary of the method: (§3)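 Peptide/kinase mixtures and ATP (apparent Km) are combined in 50 mM HEPES pH 7.5 kinase buffer with 10 mM MgCl2, 1 mM EGTA and 0.01% BRIJ-35, compound at 1.0 μM in 1% DMSO. Development reagent is then added and percent inhibition calculated.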

[5] = target: FGFR4 (Homo sapiens, UniProt P22455)
Summary of the method: as §3

[6] = target: T1, EPHB3 (Homo sapiens, UniProt P54753)
T1 sequence (P54753 34-998): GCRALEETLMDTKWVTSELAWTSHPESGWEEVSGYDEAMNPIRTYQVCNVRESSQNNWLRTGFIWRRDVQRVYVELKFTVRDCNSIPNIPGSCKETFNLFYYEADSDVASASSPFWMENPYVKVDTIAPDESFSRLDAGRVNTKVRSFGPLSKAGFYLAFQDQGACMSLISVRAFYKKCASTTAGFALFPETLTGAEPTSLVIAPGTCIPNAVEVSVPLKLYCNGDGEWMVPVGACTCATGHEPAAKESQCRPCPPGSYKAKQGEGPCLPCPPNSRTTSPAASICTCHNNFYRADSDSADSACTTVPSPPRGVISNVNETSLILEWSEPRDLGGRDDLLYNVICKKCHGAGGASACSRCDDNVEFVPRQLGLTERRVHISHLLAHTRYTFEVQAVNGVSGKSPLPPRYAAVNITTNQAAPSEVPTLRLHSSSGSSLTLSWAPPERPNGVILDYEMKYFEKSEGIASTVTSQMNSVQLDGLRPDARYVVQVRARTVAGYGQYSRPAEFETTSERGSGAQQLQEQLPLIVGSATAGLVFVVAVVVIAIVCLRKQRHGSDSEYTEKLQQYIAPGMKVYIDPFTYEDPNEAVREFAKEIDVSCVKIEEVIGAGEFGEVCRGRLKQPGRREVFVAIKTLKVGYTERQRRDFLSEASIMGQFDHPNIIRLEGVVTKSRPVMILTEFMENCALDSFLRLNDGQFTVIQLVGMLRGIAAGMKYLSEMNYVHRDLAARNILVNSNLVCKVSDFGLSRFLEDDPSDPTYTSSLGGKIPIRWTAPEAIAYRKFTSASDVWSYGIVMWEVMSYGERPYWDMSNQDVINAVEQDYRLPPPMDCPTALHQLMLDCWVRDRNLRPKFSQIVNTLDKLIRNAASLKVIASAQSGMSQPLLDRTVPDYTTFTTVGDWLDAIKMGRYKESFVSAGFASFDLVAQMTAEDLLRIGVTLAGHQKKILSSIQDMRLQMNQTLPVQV
Summary of the method: as §3

[7] = target: IGF1R (Homo sapiens, UniProt P08069)
Summary of the method: as §3

[8] = target: YES1 (Homo sapiens, UniProt P07947)
Summary of the method: as §3

[9] = target: EPHA5 (Homo sapiens, UniProt P54756)
Summary of the method: as §3

Sequence of IGF1R (P08069 31-1367): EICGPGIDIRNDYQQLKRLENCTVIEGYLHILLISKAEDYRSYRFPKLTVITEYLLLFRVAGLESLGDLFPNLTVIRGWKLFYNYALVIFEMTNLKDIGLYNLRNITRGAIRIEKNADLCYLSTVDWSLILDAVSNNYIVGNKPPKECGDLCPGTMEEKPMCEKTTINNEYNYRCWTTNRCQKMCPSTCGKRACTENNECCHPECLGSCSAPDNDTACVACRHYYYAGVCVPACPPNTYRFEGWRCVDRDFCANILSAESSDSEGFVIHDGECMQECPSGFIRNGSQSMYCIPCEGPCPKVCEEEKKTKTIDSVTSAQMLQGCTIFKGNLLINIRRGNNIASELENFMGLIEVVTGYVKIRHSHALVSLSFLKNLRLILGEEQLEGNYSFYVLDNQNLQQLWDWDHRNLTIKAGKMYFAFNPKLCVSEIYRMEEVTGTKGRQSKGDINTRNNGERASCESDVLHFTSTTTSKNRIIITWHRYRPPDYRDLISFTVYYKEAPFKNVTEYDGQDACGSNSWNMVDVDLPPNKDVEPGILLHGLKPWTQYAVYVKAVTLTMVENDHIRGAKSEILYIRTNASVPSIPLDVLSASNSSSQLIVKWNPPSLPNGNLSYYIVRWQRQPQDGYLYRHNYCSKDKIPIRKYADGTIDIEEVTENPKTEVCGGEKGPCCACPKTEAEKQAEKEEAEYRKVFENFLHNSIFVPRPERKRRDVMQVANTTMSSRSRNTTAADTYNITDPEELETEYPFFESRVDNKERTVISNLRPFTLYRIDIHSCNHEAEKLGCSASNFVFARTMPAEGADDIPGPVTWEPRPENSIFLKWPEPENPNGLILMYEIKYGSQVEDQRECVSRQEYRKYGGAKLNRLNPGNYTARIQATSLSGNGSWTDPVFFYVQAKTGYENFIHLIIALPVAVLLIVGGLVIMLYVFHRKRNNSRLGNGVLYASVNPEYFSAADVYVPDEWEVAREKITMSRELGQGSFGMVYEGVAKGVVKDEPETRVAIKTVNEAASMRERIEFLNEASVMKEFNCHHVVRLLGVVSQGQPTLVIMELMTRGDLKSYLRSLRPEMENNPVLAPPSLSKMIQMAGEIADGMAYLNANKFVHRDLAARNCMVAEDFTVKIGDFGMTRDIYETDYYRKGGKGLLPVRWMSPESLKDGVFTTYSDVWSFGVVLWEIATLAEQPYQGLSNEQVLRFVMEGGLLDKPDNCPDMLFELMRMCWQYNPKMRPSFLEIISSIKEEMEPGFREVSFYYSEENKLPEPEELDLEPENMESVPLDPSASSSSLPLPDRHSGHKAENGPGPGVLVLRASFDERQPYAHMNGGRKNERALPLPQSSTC
Sequence of EGFR (ErbB1) (P00533 25-1210): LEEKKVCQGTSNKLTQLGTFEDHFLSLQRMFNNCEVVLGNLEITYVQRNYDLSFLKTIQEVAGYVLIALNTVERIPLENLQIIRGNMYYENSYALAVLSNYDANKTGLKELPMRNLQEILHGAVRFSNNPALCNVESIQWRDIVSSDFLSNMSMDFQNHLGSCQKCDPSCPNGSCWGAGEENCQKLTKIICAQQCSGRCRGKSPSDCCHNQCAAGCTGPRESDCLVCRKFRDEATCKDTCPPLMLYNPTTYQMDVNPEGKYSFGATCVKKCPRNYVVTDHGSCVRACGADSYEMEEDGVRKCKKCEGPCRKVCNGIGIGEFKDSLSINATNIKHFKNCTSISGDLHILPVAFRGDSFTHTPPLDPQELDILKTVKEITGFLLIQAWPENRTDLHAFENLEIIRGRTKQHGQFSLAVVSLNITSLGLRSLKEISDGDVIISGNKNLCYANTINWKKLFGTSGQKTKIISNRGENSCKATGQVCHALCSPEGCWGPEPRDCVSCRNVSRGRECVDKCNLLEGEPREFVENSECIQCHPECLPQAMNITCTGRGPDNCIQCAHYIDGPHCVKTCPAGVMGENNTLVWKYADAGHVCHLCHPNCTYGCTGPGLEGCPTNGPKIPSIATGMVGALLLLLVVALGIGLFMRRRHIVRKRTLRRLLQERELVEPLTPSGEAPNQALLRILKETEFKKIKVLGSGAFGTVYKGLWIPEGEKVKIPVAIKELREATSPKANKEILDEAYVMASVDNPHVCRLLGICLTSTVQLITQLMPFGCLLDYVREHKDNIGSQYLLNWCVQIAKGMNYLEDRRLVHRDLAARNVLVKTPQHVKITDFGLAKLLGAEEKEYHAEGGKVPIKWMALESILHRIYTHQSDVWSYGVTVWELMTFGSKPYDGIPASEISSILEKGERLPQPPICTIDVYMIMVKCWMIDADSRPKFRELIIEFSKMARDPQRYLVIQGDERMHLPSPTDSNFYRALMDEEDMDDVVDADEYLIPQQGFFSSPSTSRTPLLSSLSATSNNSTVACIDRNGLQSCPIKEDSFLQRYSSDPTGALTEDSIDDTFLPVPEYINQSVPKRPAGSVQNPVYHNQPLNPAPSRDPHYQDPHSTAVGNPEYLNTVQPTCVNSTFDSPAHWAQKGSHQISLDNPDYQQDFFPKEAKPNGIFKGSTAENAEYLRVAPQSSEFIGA
Sequence of FLT1 (VEGFR1) (P17948 27-1338): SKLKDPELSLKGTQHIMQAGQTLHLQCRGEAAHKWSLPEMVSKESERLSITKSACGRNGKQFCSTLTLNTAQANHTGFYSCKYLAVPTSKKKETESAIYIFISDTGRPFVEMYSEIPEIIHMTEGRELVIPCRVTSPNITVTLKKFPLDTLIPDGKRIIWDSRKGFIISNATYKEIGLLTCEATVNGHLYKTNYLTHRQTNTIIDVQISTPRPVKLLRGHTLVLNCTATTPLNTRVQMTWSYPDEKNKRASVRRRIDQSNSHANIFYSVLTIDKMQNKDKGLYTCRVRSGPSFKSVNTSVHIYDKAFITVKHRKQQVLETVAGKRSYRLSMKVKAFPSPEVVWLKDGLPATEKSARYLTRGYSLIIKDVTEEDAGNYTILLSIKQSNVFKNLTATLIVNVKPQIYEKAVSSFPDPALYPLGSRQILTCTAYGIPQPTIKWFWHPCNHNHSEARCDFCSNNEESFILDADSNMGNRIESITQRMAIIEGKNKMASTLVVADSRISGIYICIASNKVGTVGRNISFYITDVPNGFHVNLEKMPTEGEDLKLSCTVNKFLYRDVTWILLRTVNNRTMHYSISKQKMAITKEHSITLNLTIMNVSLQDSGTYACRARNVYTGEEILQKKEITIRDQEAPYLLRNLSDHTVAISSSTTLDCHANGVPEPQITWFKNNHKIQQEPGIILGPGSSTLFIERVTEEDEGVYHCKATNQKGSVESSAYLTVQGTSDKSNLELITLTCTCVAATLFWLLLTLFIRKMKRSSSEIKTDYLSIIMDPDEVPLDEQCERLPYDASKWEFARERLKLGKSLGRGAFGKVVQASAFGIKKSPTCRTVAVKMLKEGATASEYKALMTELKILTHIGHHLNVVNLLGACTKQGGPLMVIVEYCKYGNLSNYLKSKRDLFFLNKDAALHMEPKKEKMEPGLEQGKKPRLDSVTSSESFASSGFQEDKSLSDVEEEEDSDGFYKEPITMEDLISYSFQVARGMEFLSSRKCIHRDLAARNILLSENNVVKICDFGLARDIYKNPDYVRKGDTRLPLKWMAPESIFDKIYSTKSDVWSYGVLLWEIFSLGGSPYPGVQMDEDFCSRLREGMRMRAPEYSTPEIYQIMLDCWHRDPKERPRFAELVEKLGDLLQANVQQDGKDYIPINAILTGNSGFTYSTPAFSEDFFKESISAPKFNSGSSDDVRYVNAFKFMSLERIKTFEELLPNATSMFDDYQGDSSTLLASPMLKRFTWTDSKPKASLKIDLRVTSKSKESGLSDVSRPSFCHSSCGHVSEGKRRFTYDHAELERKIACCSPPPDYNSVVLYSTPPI
Sequence of PTK2 (FAK) (Q05397 whole entry): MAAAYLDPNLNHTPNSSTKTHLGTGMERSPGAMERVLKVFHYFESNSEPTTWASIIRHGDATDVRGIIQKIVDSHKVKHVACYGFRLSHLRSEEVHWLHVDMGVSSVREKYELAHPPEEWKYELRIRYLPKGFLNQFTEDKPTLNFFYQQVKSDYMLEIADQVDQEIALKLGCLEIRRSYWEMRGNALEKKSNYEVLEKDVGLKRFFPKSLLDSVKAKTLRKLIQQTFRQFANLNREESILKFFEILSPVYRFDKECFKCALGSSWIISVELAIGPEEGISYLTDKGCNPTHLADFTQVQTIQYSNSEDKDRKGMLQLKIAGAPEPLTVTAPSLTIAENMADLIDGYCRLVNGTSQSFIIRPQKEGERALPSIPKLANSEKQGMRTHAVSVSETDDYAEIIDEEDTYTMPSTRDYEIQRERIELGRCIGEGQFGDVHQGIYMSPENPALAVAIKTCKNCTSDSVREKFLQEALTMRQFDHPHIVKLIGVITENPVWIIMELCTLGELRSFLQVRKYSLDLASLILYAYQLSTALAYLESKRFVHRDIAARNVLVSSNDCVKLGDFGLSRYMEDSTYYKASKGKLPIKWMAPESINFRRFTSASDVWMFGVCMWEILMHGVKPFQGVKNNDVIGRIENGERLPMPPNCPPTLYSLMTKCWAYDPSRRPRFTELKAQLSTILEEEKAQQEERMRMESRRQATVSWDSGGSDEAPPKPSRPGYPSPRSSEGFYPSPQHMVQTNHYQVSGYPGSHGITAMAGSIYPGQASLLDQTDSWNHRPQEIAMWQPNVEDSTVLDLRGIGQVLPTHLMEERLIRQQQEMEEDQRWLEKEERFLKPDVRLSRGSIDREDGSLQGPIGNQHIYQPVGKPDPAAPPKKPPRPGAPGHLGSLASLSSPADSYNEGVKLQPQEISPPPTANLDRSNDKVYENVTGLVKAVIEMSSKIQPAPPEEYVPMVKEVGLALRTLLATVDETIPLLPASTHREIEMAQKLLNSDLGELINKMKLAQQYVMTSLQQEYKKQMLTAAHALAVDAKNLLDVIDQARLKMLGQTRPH

Work on COc1cc2nccc(Oc3ccc(NC(=O)C4(C(=O)Nc5ccc(F)cc5)CC4)cc3F)c2cc1Oc1ccc(N)cc1F [Cbo-23] yielded an inhibition at 1 µM [1] of 76%, an inhibition at 1 µM [2] of 58% and an inhibition at 1 µM [3] of 66%. It also gave an inhibition at 1 µM [4] of 55%, an inhibition at 1 µM [5] of 13% and an inhibition at 1 µM [6] of 55%. It also gave an inhibition at 1 µM [7] of 52%, an inhibition at 1 µM [8] of 94% and an inhibition at 1 µM [9] of 99%.
Work on COc1cc2nccc(Oc3ccc(NC(=O)C4(NC(=O)c5ccc(F)cc5)CC4)cc3F)c2cc1Oc1ccc(N)cc1F [Cbo-10] yielded an inhibition at 1 µM [1] of 61%, an inhibition at 1 µM [2] of 88% and an inhibition at 1 µM [3] of 33%. For the same compound, the inhibition at 1 µM [4] was 69%, the inhibition at 1 µM [5] was 1% and the inhibition at 1 µM [6] was 6%. It also gave an inhibition at 1 µM [7] of 27%, an inhibition at 1 µM [8] of 64% and an inhibition at 1 µM [9] of 87%.
For COc1cc2nccc(Oc3ccc(NC(=O)C4(NC(=O)c5ccc(F)cc5)CC4)cc3F)c2cc1OC [Cbo-02, N-(1-((4-((6,7-diMethoxyquinolin-4-yl)oxy)-3-fluorophenyl)carbamoyl)cyclopropyl)-4-fluorobenzamide], the inhibition at 1 µM [1] was 30%, the inhibition at 1 µM [2] was 44% and the inhibition at 1 µM [3] was 20%. It also gave an inhibition at 1 µM [4] of 50%, an inhibition at 1 µM [5] of 0% and an inhibition at 1 µM [6] of 4%. For the same compound, the inhibition at 1 µM [7] was 13%, the inhibition at 1 µM [8] was 34% and the inhibition at 1 µM [9] was 41%.
With COc1cc2nccc(Oc3ccc(NC(=O)C4(NC(=O)c5ccc(F)cc5)CC4)cc3F)c2cc1Oc1c(F)cc(N)cc1F [Cbo-14] the inhibition at 1 µM [1] was 62%, the inhibition at 1 µM [2] was 89% and the inhibition at 1 µM [3] was 29%. The inhibition at 1 µM [4] was 79%, the inhibition at 1 µM [5] was -1% and the inhibition at 1 µM [6] was 6%. For the same compound, the inhibition at 1 µM [7] was 35%, the inhibition at 1 µM [8] was 63% and the inhibition at 1 µM [9] was 92%.
COc1cc2nccc(Oc3ccc(NC(=O)C4(C(=O)Nc5ccc(F)cc5)CC4)cc3)c2cc1OC [Cabozantinib, reference compound] gave an inhibition at 1 µM [1] of 67%, an inhibition at 1 µM [2] of 32% and an inhibition at 1 µM [4] of 20%. The inhibition at 1 µM [5] was -2%, the inhibition at 1 µM [6] was 54% and the inhibition at 1 µM [7] was 15%. The inhibition at 1 µM [8] was 63% and the inhibition at 1 µM [9] was 100%.
